In patent publication US20200071326A1, “TAM KINASE INHIBITORS” (Syros Pharmaceuticals, Inc., priority 2017, published 2020) one finds Ki data, which are given here for 28 compounds.

Counter-ions that a name gives are not always drawn. A value given as a limit tells only on which side of the number the result lay.

One assay concerns the target T1, AXL (Homo sapiens, UniProt P30530).
T1 sequence (P30530 26-894): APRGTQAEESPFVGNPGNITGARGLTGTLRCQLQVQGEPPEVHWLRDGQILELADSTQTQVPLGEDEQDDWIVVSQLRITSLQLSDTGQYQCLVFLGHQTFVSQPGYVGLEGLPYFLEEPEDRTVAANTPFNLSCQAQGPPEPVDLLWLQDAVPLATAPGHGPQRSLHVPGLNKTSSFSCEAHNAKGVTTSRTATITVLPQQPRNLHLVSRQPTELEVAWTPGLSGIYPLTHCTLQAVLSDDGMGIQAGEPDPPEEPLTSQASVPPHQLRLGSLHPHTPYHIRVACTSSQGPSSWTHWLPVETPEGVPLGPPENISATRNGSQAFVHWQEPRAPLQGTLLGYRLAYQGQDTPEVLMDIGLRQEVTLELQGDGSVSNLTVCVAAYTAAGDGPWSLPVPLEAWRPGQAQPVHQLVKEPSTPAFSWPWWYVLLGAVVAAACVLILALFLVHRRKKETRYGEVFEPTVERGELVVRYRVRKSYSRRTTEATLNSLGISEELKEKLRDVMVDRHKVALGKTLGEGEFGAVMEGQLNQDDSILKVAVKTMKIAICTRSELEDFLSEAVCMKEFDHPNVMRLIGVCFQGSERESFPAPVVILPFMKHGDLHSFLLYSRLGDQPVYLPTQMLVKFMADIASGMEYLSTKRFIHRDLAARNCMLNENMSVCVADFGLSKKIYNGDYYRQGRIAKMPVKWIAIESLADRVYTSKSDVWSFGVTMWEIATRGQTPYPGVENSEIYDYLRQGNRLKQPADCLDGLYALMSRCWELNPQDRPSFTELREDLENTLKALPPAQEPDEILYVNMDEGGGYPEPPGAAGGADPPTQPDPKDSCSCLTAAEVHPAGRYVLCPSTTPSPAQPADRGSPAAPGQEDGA
Put plainly: IMAP fluorescence polarization kinase assay, AXL. Format: biochemical. To be noted: ATP 24.7 μM, enzyme 2.5 nM, 240 minutes, read-out: AXL inhibitory constant (Ki). As for the experimental part: (§1) Activities of compounds against each of TYRO3, AXL, and MERTK as well as against FLT3, were determined using an immobilized metal ion affinity-based fluorescence polarization (“IMAP”) assay. A fluorescently-labeled substrate peptide was phosphorylated in the kinase reaction, after which a binding solution containing large trivalent metal-based nanoparticles was added and the phosphorylated substrate binds to these beads. This reduces the rotational speed of the substrate which is then detected using fluorescence polarization as a read-out.
(§2) The substrates used for each enzyme are as follows: AXL: 5F1-KKKKEEIYFFFG-NH2(SEQ ID NO:1); FLT3: 5F1-KKKKEEIYFFF-NH2 (SEQ ID NO:2); MERTK: 5F1-EFPIYDFLPAKKK-NH2 (SEQ ID NO:3); and TYRO3: 5F1-EFPIYDFLPAKKK-NH2 (SEQ ID NO:4).
(§3) This assay was performed in a 384-well, polystyrene microplate in a final volume of 8 μl. Substrate (final concentration=400 nM), ATP (final concentrations=24.7μM for AXL; 2.74 μM for FLT3; 2.69 μM for MERTK; and 54.0 μM for TYRO3), compounds and enzyme (final concentrations=2.5 nM for AXL, FLT3 and TYRO3; 1.5 nM for MERTK) were pipetted in this order into the appropriate reaction buffer (AXL: 50 mM HEPES, pH 8.0, 1 mM DTT, 10 mM MgCl2, 0.01% BRU35, 0.01% Triton X-100; FLT3: 50 mM HEPES, pH 8.0, 1 mM DTT, 10 mM MgCl2, 0.01% Triton X-100, 0.01% NP40; MERTK/TYRO3: 50 mM HEPES, pH 8.0, 1 mM DTT, 10 mM MgCl2, 0.01% Triton X-100) and incubated at room temperature for varying times (AXL, FLT3 and MERTK: 240 minutes; TYRO3: 60 minutes). IMAP binding solution was then dispensed, the plate incubated for 60 minutes at room temperature and the fluorescence polarization measured. Data were analyzed using XLfit.
(In general: In fluorescence polarisation assays a small probe gives low polarisation when free and higher when bound to something large.)

The next assay concerns the target T2, FLT3 (Homo sapiens, UniProt P36888).
T2 sequence (P36888 27-993): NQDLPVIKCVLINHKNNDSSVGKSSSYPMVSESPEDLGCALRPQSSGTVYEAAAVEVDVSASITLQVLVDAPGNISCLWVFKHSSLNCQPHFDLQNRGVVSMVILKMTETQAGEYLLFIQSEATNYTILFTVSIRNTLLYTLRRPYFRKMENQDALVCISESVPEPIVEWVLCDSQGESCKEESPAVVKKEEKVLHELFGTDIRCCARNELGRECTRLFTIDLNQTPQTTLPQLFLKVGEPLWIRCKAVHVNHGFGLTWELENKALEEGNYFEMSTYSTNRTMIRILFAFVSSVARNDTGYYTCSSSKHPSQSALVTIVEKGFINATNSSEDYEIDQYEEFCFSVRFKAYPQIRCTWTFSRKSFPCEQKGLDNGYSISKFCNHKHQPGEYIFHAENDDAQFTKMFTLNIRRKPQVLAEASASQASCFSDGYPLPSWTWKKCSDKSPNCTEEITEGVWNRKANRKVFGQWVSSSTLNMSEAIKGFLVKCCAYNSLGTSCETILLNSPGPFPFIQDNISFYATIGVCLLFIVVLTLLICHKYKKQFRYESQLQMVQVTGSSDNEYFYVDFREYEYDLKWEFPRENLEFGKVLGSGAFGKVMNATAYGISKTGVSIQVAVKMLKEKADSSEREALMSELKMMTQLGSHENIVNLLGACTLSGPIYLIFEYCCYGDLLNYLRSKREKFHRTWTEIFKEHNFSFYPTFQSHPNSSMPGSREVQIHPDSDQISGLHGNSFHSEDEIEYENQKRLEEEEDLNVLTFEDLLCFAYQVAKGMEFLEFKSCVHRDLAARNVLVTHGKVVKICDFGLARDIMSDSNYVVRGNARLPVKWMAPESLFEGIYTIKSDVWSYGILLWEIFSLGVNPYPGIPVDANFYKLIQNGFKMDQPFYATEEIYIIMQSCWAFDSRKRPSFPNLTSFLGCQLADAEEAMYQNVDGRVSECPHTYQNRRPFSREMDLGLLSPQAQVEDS
Put plainly: IMAP fluorescence polarization kinase assay, FLT3. To be noted: ATP 2.74 μM, enzyme 2.5 nM, 240 minutes, read-out: FLT3 inhibitory constant (Ki). It is filed as biochemical. As for the experimental part: as §1, §2, §3

Turning to `CCCc1cc2c(N[C@H]3CC[C@H](O)CC3)c(-c3ccc(CN4CCCC4)cn3)cnc2[nH]1` [Compound 125], the Ki was 100 to 1000 nM at AXL and < 100 nM at FLT3.
As to `N[C@H]1CC[C@H](Nc2c(C(=O)NCc3ccc(-n4ccnc4)cc3)cnc3[nH]c(C4CCCC4)cc23)CC1` [Compound 126], the Ki on AXL is 100 to 1000 nM; at FLT3, < 100 nM.
For `CCCc1cc2c(N[C@H]3CC[C@H](N)CC3)c(-c3ccc(C)nn3)cnc2[nH]1` [Compound 127] the same measures were 100 to 1000 nM and < 100 nM.
For `C#Cc1cc2c(N[C@H]3CC[C@H](N)CC3)c(C(=O)Nc3ccc(F)cc3)cnc2[nH]1` [Compound 128, [4-1(4-aminocyclohexyl)amino]-2-ethynyl-N-(4-fluorophenyl)-1H-pyrrolo[2,3-b]pyridine-5-carboxamide] the same measures were 1000 to 10000 nM and < 100 nM.
On the same counts, the results for `CC(C)c1cc2c(N[C@H]3CC[C@H](N)CC3)c(C(=O)NCc3ccc(-n4ccnc4)cc3)cnc2[nH]1` [Compound 129] are 100 to 1000 nM and < 100 nM.
For `CCCc1cc2c(N[C@H]3CC[C@H](N)CC3)c(-c3ccc(COC(C)C)cn3)cnc2[nH]1` [Compound 130], the results for the Ki on AXL and on FLT3 were 1000 to 10000 nM and < 100 nM, respectively.
For `CCCc1cc2c(N[C@H]3CC[C@H](N)CC3)c(-c3cc(N)ccn3)cnc2[nH]1` [Compound 131], the Ki was 1000 to 10000 nM at AXL and < 100 nM on FLT3.
For `CCc1cc2c(N[C@H]3CC[C@H](N)CC3)c(C(=O)NC3CCN(c4ncccn4)CC3)cnc2[nH]1` [Compound 132] the same measures were 100 to 1000 nM and < 100 nM.
On the same counts, the results for `CCCCCc1cc2c(N[C@H]3CC[C@H](N)CC3)c(C(=O)NCc3ccc(-n4ccnc4)cc3)cnc2[nH]1` [Compound 133] are 100 to 1000 nM and 100 to 1000 nM.
For `CCC(C)c1cc2c(N[C@H]3CC[C@H](N)CC3)c(C(=O)Nc3ccc(F)cc3)cnc2[nH]1` (some centres unmarked) [Compound 134] the same measures were 1000 to 10000 nM and 100 to 1000 nM.
`N[C@H]1CC[C@H](Nc2c(C(=O)Nc3ccc(F)cc3)cnc3[nH]c(C(F)(F)F)cc23)CC1` [Compound 135, 4-(((1r,4r)-4-aminocyclohexyl)amino)-N-(4-fluorophenyl)-2-(trifluoromethyl)-1H-pyrrolo[2,3-b]pyridine-5-carboxamide hydrochloride]: the Ki on AXL and at FLT3 was 100 to 1000 nM throughout.
Regarding `CCc1cc2c(N[C@H]3CC[C@H](N)CC3)c(C(=O)Nc3ccc(F)cc3)cnc2[nH]1` [Compound 136], the Ki at AXL is 100 to 1000 nM; on FLT3, < 100 nM.
For `CCCC(O)c1cc2c(N[C@H]3CC[C@H](N)CC3)c(Br)cnc2[nH]1` (some centres unmarked) [Compound 137] the same measures were 1000 to 10000 nM and 1000 to 10000 nM.
Take `N[C@H]1CC[C@H](Nc2c(C(=O)Nc3ccc(F)cc3)cnc3[nH]c(C4CCC4)cc23)CC1` [Compound 138, 4-(((1r,4r)-4-aminocyclohexyl)amino)-2-cyclobutyl-N-(4-fluorophenyl)-1H-pyrrolo[2,3-b]pyridine-5-carboxamide hydrochloride]: the Ki on AXL is 1000 to 10000 nM; at FLT3 it was < 100 nM.
For `CCCc1cc2c(N[C@H]3CC[C@H](N)CC3)c(C(=O)NC)cnc2[nH]1` [Compound 139] the same measures were 100 to 1000 nM and < 100 nM.
On the same counts, the results for `CCCc1cc2c(N[C@H]3CC[C@H](N)CC3)c(C(=O)OC)cnc2[nH]1` [Compound 140] are 1000 to 10000 nM and < 100 nM.
For `CCCc1cc2c(N[C@H]3CC[C@H](N)CC3)c(C(=O)NC3CCN(c4ncccn4)CC3)cnc2[nH]1` [Compound 141] the same measures were 100 to 1000 nM and 100 to 1000 nM.
Turning to `CCCc1cc2c(N[C@H]3CC[C@H](N)CC3)c(Br)cnc2[nH]1` [Compound 142], the Ki on AXL and at FLT3 was 100 to 1000 nM in each case.
With `CC(O)c1cc2c(N[C@H]3CC[C@H](O)CC3)c(-c3ccc(CN4CCOCC4)cn3)cnc2[nH]1` (some centres unmarked) [Compound 143], the Ki at AXL was 1000 to 10000 nM; on FLT3, < 100 nM.
On the same counts, the results for `CCc1cc2c(N[C@H]3CC[C@H](O)CC3)c(-c3ccc(CN4CCOCC4)cn3)cnc2[nH]1` [Compound 144] are 100 to 1000 nM and < 100 nM.
For `COC(C)c1cc2c(N[C@H]3CC[C@H](N)CC3)c(C(=O)Nc3ccc(F)cc3)cnc2[nH]1` (some centres unmarked) [Compound 145] the same measures were > 10000 nM and 1000 to 10000 nM.
On the same counts, the results for `CCC(OC)c1cc2c(N[C@H]3CC[C@H](N)CC3)c(C(=O)Nc3ccc(F)cc3)cnc2[nH]1` (some centres unmarked) [Compound 146] are > 10000 nM and 1000 to 10000 nM.
In the case of `CCC(CC)c1cc2c(N[C@H]3CC[C@H](N)CC3)c(C(=O)Nc3ccc(F)cc3)cnc2[nH]1` [Compound 147], the Ki on AXL and at FLT3 was 1000 to 10000 nM throughout.
Consider `CC(O)c1cc2c(N[C@H]3CC[C@H](N)CC3)c(C(=O)Nc3ccc(F)cc3)cnc2[nH]1` (some centres unmarked) [Compound 148], for which the values for the Ki on AXL and on FLT3 were > 10000 nM and 100 to 1000 nM, respectively.
Regarding `CCC[C@H](C)c1cc2c(N[C@H]3CC[C@H](N)CC3)c(C(=O)Nc3ccc(F)cc3)cnc2[nH]1` [Compound 149], the Ki on AXL and at FLT3 was 1000 to 10000 nM each time.
Take `CCC[C@@H](C)c1cc2c(N[C@H]3CC[C@H](N)CC3)c(C(=O)Nc3ccc(F)cc3)cnc2[nH]1` [Compound 150]: the Ki on AXL and on FLT3 was 1000 to 10000 nM in each case.
As for `CCOC(C)c1cc2c(N[C@H]3CC[C@H](N)CC3)c(C(=O)Nc3ccc(F)cc3)cnc2[nH]1` (some centres unmarked) [Compound 152], the Ki at AXL and on FLT3 was > 10000 nM each time.
Consider `CCCC(OC)c1cc2c(N[C@H]3CC[C@H](N)CC3)c(C(=O)Nc3ccc(F)cc3)cnc2[nH]1` (some centres unmarked) [Compound 153], for which the Ki at AXL and at FLT3 was > 10000 nM each time.

Usually Ki stands for the equilibrium dissociation constant of an inhibitor or competing ligand from its target.
